The values below come from patent US20240199535A1, “DEUTERATED DHODH INHIBITORS” (priority 2021, published 2024).

Structures are written as SMILES. pEC50: −log10 of the molar value.

A word on the AUC: it is concentration integrated over time. The low end stands for less exposure, the high end for more exposure. Usually Cmax stands for the maximum level reached in the sampled fluid or tissue. In general, half-life refers to how long it takes for the measured level to halve. The term AUC(0-inf) denotes the area under the concentration-time curve extrapolated to infinity. A lower AUC(0-inf) goes with less exposure. In general, AUC(0-t) refers to exposure summed from dosing to a finite time, without extrapolation to infinity. Higher therefore signals more exposure. The bioavailability is the share of a dose that reaches the circulation, judged against a reference dose that is usually intravenous. As usually defined, the CL/F is the apparent clearance, not corrected for the fraction that reaches the circulation. A word on the Tmax: it is the time at which the peak concentration occurs. In general, Vd/F refers to the apparent distribution volume after extravascular dosing. Broadly, the microsomal CLint is a measure of how fast metabolising enzymes remove a compound, apart from limits set by blood flow. A high value points to faster metabolism. One may read the pEC50 as the negative decadic logarithm of the EC50, by convention in mol/L.

Series [1] in a line: in vivo. Particulars: CC7BL/6J, mouse, po, 5 mg/kg. The method, then: The pharmacokinetics of the compounds of the present invention was evaluated in 3 male and 3 female mice (CC7BL/6J, 8 week old) after oral cassette dosing. Dose was 5 mg/kg, application volume was 5 mL/kg and vehicle was 5% Solutol, 95% NaCl solution (at 0.9% saline concentration). At each designated time point (0, 0.25, 0.5, 1, 2, 4, 8 h after dosing), 20 μL whole blood were collected from the tail vein into Li-heparin tubes, frozen on dry ice within 1-2 minutes of sampling and stored at −20° C. until processed for LC-MS analysis.

The nature of series [2]: in vivo. Particulars: Han Wistar, rat. As to the method: Rats are provided with a catheter in the jugular vein (2-3 days prior to blood sampling). At each designated time point (0, 1, 2, 4, 8 and 24 h after dosing), 100 μL blood were collected into Li-heparin tubes, stored on ice until centrifugation (10 minutes at 3000 g, 4° C.) and plasma was prepared within 45 min after collection, frozen at −20° C. and stored at this temperature until processed for LC-MS analysis.

The nature of series [3]: in vitro. To be noted: male, rat, microsomes.
The nature of series [4]: in vitro. To be noted: human, microsomes.
Series [5] concerns SARS-CoV-2. Kind of series: Antiviral activity on SARS-CoV-2, viral replication (YFP) assay. It counts as cell-based. Particulars: Severe acute respiratory syndrome coronavirus 2, read-out: EC50 range.

Consider `COc1cccc(-c2ccc(NC(=O)C3=C(C(=O)O)CCC3)c(F)c2)c1` [Example C26, vidofludimus, reference compound], for which, in series [1] (female), the AUC worked out at 1970 ng·h/mL, the highest level (Cmax) was 745 ng/mL and the half-life came out at 1.7 h. In series [1] (male), the AUC was 1620 ng·h/mL, the Cmax was found to be 789 ng/mL and the half-life worked out at 1.7 h. Moreover, in series [2] (female, iv, 1 mg/kg), the “% AUCextra” value was found to be 12%, the total exposure AUC(0-inf) came out at 82900 ng·h/mL, the AUC(0-t) turned out to be 68600 ng·h/mL and the C0 stood at 8130 ng/mL. In series [2] (female, iv, 1 mg/kg), this compound showed a Cz of 939 ng/mL, a Vz/f of 0.016 L/kg, a t1/2z of 9.7 h and a tz of 24 h. The compound also gave a bioavailability in series [2] (female, po) of 73.8%. Further, in series [2] (female, po, 5 mg/kg), the “% AUCextra” value is listed as 17%, the AUC(0-inf) stood at 297000 ng·h/mL, the AUC(0-t) was found to be 253000 ng·h/mL and the CL/F is 3.7 mL/min/kg. Further, in series [2] (female, po, 5 mg/kg), the highest level (Cmax) was 21300 ng/mL, the Cz worked out at 3620 ng/mL, the Tmax came out at 2 h and the Vd/F was found to be 0.016 L/kg. Besides, in series [2] (female, po, 5 mg/kg), the t1/2z was 9.1 h and the tz is recorded as 24 h. For the same compound, in series [2] (male, iv, 1 mg/kg), the “% AUCextra” value worked out at 22%, the area under the curve AUC(0-inf) is 47900 ng·h/mL, the exposure AUC(0-t) was found to be 43200 ng·h/mL and the C0 came to 5790 ng/mL. In series [2] (male, iv, 1 mg/kg), this compound registered a Cz of 421 ng/mL, a Vz/f of 0.009 L/kg, a t1/2z of 7.3 h and a tz of 24 h. This compound also yielded a bioavailability in series [2] (male, po) of 92.7%. Further, in series [2] (male, po, 5 mg/kg), the “% AUCextra” value amounted to 25%, the AUC(0-inf) was 206000 ng·h/mL, the AUC(0-t) was determined as 200000 ng·h/mL and the CL/F is 3.72 mL/min/kg. Moreover, in series [2] (male, po, 5 mg/kg), the highest level (Cmax) was 14900 ng/mL, the Cz turned out to be 1540 ng/mL, the Tmax worked out at 2 h and the Vd/F amounted to 0.007 L/kg. In series [2] (male, po, 5 mg/kg), this compound registered a t1/2z of 6.4 h and a tz of 24 h. This compound also returned a microsomal CLint in series [3] of 8.48 µL/min/mg. For the same compound, in series [4] (both), the microsomal CLint turned out to be 2.27 µL/min/mg. This compound displayed a microsomal CLint in series [4] (female) of 6.58 µL/min/mg. Also, the intrinsic metabolic clearance (microsomal CLint) in series [4] (male) stood at 12.6 µL/min/mg.
`[2H]C([2H])([2H])Oc1cccc(-c2ccc(NC(=O)C3=C(C(=O)O)CCC3)c3ccccc23)c1` [12/4]: in series [5], the pEC50 is 4.60 to 5.00.
On to `[2H]c1c([2H])c(F)c([2H])c(-c2cc(F)c(NC(=O)C3=C(C(=O)O)CCC3)c(F)c2)c1[2H]` [1/7], for which the pEC50 in series [5] was above 5.00.
Turning to `[2H]C([2H])([2H])C([2H])([2H])Oc1cccc(-c2cc(F)c(NC(=O)C3=C(C(=O)O)CCC3)c(F)c2)c1` [1/3], the pEC50 in series [5] is above 5.00.
Same read-out and setting: the figure for `[2H]C([2H])([2H])Oc1cccc(-c2cnc(NC(=O)C3=C(C(=O)O)CCC3)c(F)c2)c1` [Example 12, 2-((3-Fluoro-5-(3-(methoxy-d3)phenyl)pyridin-2-yl)carbamoyl)cyclopent-1-ene-1-carboxylic Acid] is above 5.00; for `[2H]C([2H])([2H])Oc1cccc(-c2ccc(NC(=O)C3=C(C(=O)O)CCC3)c3c2CCC3)c1` [Example 12/1] it is above 5.00.
As for `[2H]C([2H])([2H])Oc1cccc(-c2c(F)c(F)c(NC(=O)C3=C(C(=O)O)CCC3)c(F)c2F)c1` [1/2], the pEC50 in series [5] was above 5.00.
In the case of `[2H]C([2H])([2H])Oc1cccc(-c2ccc(NC(=O)C3=C(C(=O)O)CCC3)c3cnccc23)c1` [12/3], the negative-log EC50 (pEC50) in series [5] is 4.30 to 4.60.
On the same count and under the same terms, under `[2H]C([2H])([2H])Oc1cccc(-c2cc(F)c(NC(=O)C3=C(C(=O)O)CCC3)c(F)c2)n1` [1/10] stands 4.60 to 5.00.
Turning to `[2H]C([2H])([2H])Oc1ccccc1-c1cc(F)c(NC(=O)C2=C(C(=O)O)CCC2)c(F)c1` [1/4], the pEC50 in series [5] is above 5.00.
With `[2H]c1cc([2H])c(-c2ccc(NC(=O)C3=C(C(=O)O)CCC3)c(F)c2)c([2H])c1O` [Example 8, 2-((3-Fluoro-3′-hydroxy-[1,1′-biphenyl]-4-yl-2′,4′,6′-d3)carbamoyl)cyclopent-1-ene-1-carboxylic Acid], the pEC50 in series [5] is 4.30 to 4.60.
On the same count and under the same terms, the figure for `[2H]C([2H])([2H])Oc1cc(-c2cc(F)c(NC(=O)C3=C(C(=O)O)CCC3)c(F)c2)ccn1` [1/9] is 4.30 to 4.60.
With `[2H]c1cc([2H])c(-c2ccc(NC(=O)C3=C(C(=O)O)CCC3)c(F)c2)c([2H])c1OC([2H])([2H])[2H]` [Example 2, 2-((3-Fluoro-3′-(methoxy-d3)-[1,1′-biphenyl]-4-yl-2′,4′,6′-d3)carbamoyl)cyclopent-1-ene-1-carboxylic Acid], in series [2] (female, iv, 1 mg/kg), the “% AUCextra” value is 13%, the AUC(0-inf) came out at 79100 ng·h/mL, the AUC(0-t) was 64700 ng·h/mL and the C0 stood at 7980 ng/mL. Moreover, in series [2] (female, iv, 1 mg/kg), the Cz was found to be 915 ng/mL, the Vz/f worked out at 0.017 L/kg, the t1/2z is reported as 10.0 h and the tz came to 24 h. This compound yielded a bioavailability in series [2] (female, po) of 83.1%. In series [2] (female, po, 5 mg/kg), the “% AUCextra” value is recorded as 16%, the AUC(0-inf) was 320000 ng·h/mL, the AUC(0-t) is 269000 ng·h/mL and the CL/F was 3.5 mL/min/kg. For the same compound, in series [2] (female, po, 5 mg/kg), the peak concentration (Cmax) came to 21300 ng/mL, the Cz came out at 3892 ng/mL, the Tmax turned out to be 2 h and the Vd/F came to 0.017 L/kg. In addition, in series [2] (female, po, 5 mg/kg), the t1/2z was found to be 9.3 h and the tz is listed as 24 h. Also, in series [2] (male, iv, 1 mg/kg), the “% AUCextra” value turned out to be 23%, the AUC(0-inf) came out at 45200 ng·h/mL, the AUC(0-t) was determined as 40400 ng·h/mL and the C0 worked out at 5310 ng/mL. In series [2] (male, iv, 1 mg/kg), this compound showed a Cz of 422 ng/mL, a Vz/f of 0.01 L/kg, a t1/2z of 7.6 h and a tz of 24 h. In series [2] (male, po), this compound returned a bioavailability of 100%. Further, in series [2] (male, po, 5 mg/kg), the “% AUCextra” value turned out to be 22%, the AUC(0-inf) turned out to be 233000 ng·h/mL, the AUC(0-t) stood at 202000 ng·h/mL and the CL/F is 3.43 mL/min/kg. In addition, in series [2] (male, po, 5 mg/kg), the Cmax worked out at 16000 ng/mL, the Cz worked out at 1657 ng/mL, the Tmax amounted to 2 h and the Vd/F was found to be 0.008 L/kg. Further, in series [2] (male, po, 5 mg/kg), the t1/2z stood at 6.6 h and the tz was 24 h. In series [4] (both), this compound registered a microsomal CLint of 0.74 µL/min/mg. The same compound came in with an intrinsic clearance (microsomal CLint) in series [4] (female) of 5.8 µL/min/mg. The compound also had a microsomal CLint in series [4] (male) of 7.67 µL/min/mg.
On to `[2H]C([2H])([2H])Oc1cccc(-c2cc(F)c(NC(=O)C3=C(C(=O)O)CSC3)c(F)c2)c1` [Example 10, 4-((3,5-Difluoro-3′-(methoxy-d3)-[1,1′-biphenyl]-4-yl)carbamoyl)-2,5-dihydro-thiophene-3-carboxylic Acid], for which the negative logarithm of the EC50 (pEC50) in series [5] is 4.60 to 5.00.
Consider `[2H]C([2H])([2H])Oc1cccc(-c2cc(F)c(NC(=O)C3=C(C(=O)O)COC3)c(F)c2)c1` [Example 11, 4-((3,5-Difluoro-3′-(methoxy-d3)-[1,1′-biphenyl]-4-yl)carbamoyl)-2,5-dihydrofuran-3-carboxylic Acid], for which the pEC50 in series [5] is below 4.30.
As to `[2H]c1cc([2H])c(-c2c(F)c(F)c(NC(=O)C3=C(C(=O)O)CCC3)c(F)c2F)c([2H])c1OC(F)(F)F` [Example 3, 2-((2,3,5,6-Tetrafluoro-3′-(trifluoromethoxy)-[1,1′-biphenyl]-4-yl-2′,4′,6′-d3)carbamoyl)cyclopent-1-ene-1-carboxylic Acid], the negative-log EC50 (pEC50) in series [5] is above 5.00.
Take `[2H]C([2H])([2H])Oc1nc(-c2cc(F)c(NC(=O)C3=C(C(=O)O)CCC3)c(F)c2)cs1` [1/8]: the pEC50 in series [5] is 4.30 to 4.60.
